Source: patent publication US12479834B2, “Phenol compound or salt thereof” (TAIHO PHARMACEUTICAL CO., LTD., priority 2019, dated 2025)

How the values were obtained:
G12C K-Ras4B (1-169) = target: T1, G12C K-Ras4B (1-169) (Homo sapiens, UniProt P01116, G12C); experiment: Binding to KRAS G12C mutant, compound binding rate by LC-MS; settings: final compound concentration 2 μM, 1 μM protein, 2 hours at 25° C.
T1 construct: G12C K-Ras4B (1-169) protein, which was a KRAS G12C mutant; His tag (N, cleaved yes); made in house; host or cells: E. coli BL21 (DE3)
How it was run: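 Covalent labelling at 2 μM final compound on a mix of 1 μM each wild-type and G12C K-Ras4B (1-169) (E. coli-expressed, tag removed) in 1×TBS, 0.1 mM TCEP, 2 h at 25° C., quenched with formic acid. Intact-protein ESI Q-TOF LC-MS; binding rate from adduct vs unbound protein signal, graded A–E in 20% bands.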

KRAS G12C mutant = target: T2, KRAS G12C mutant (Homo sapiens, UniProt P01116, G12C); experiment: Inhibition of SOS1-mediated nucleotide (GDP-GTP) exchange reaction of KRAS G12C mutant, BODIPY FL GDP fluorescence; type: biochemical; settings: preincubated 25° C. 4 hours with 25 nM KRAS G12C bound with BODIPY FL GDP; SOS1 100 nM, GppNHp 1 μM, 30 minutes
T2 construct: 50 μM G12C K-Ras4B (1-169) protein and 1 mM BODIPY® FL GDP; His tag (N, cleaved yes); made in house; host or cells: E. coli BL21 (DE3)
How it was run: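 KRAS G12C (1-169) loaded with BODIPY FL GDP (25 nM) was preincubated with compound (5% DMSO) for 4 h at 25 °C. Exchange then ran 30 min with SOS1 (564-1049, 100 nM) and 1 µM GppNHp. IC50 came from the 485/520 nm fluorescence change, normalized to DMSO and no-GppNHp controls.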

| binding rate for G12C K-Ras4B (1-169) (G12C K-Ras4B (1-169)) | IC50 (KRAS G12C mutant) | Compound |
| --- | --- | --- |
| A (80% or more) | 353 nM | C=CC(=O)N1CC(NC(=O)c2ccc(CNc3cc(C(C)(C)C)c(Br)cc3O)o2)C1 [Example 65, N-(1-Acryloylazetidin-3-yl)-5-(((4-bromo-5-(tert-butyl)-2-hydroxyphenyl)amino)methyl)furan-2-carboxamide] |
| D (20% or more and less than 40%) | 366 nM | C=CC(=O)N1CC(NC(=O)c2cnc(CNc3cc(CCC)c(Cl)cc3O)n2C)C1 [Example 64, N-(1-Acryloylazetidin-3-yl)-2-(((4-chloro-2-hydroxy-5-propylphenyl)amino)methyl)-1-methyl-1H-imidazole-5-carboxamide] |
| C (40% or more and less than 60%) | 763 nM | C=CC(=O)N1CC(NC(=O)c2ccc(CNc3cc(C4CC4(F)F)c(Cl)cc3O)o2)C1 (stereo not drawn) [Example 51, N-(1-Acryloylazetidin-3-yl)-5-(((4-chloro-5-(2,2-difluorocyclopropyl)-2-hydroxyphenyl)amino)methyl)furan-2-carboxamide] |
| D (20% or more and less than 40%) | 825 nM | C=CC(=O)N1CC(NC(=O)c2ccnc(CNc3cc(C(C)(C)C)c(Cl)cc3O)c2)C1 [Example 15, N-(1-Acryloylazetidin-3-yl)-2-(((5-(tert-butyl)-4-chloro-2-hydroxyphenyl)amino)methyl)isonicotinamide] |
| D (20% or more and less than 40%) | 164 nM | C=CC(=O)N1CC[C@@H](N(C)C(=O)c2ccc(CNc3cc(C(C)(C)C)c(Cl)cc3O)o2)C1 [Example 6, (R)—N-(1-Acryloylpyrrolidin-3-yl)-5-(((5-(tert-butyl)-4-chloro-2-hydroxyphenyl)amino)methyl)-N-methylfuran-2-carboxamide] |
| E (less than 20%) | 5970 nM | C=CC(=O)N1CC(NC(=O)c2ccc(CNc3cc(C4CCC4)c(Cl)cc3O)o2)C1 [Example 53, N-(1-Acryloylazetidin-3-yl)-5-(((4-chloro-5-cyclobutyl-2-hydroxyphenyl)amino)methyl)furan-2-carboxamide] |
| B (60% or more and less than 80%) | 701 nM | CN(C)C/C=C/C(=O)N1CC(NC(=O)c2cnc(CNc3cc(C(C)(C)C)c(Cl)cc3O)s2)C1 [Example 86, (E)-2-(((5-(tert-Butyl)-4-chloro-2-hydroxyphenyl)amino)methyl)-N-(1-(4-(dimethylamino)but-2-enoyl)azetidin-3-yl)thiazole-5-carboxamide] |
| E (less than 20%) | 1140 nM | C=CC(=O)N1CC(N(C)C(=O)c2ccc(CNc3cc(OC(F)(F)F)c(Cl)cc3O)o2)C1 [Example 49, N-(1-Acryloylazetidin-3-yl)-5-(((4-chloro-2-hydroxy-5-(trifluoromethoxy)phenyl)amino)methyl)-N-methylfuran-2-carboxamide] |
| B (60% or more and less than 80%) | 64 nM | C=CC(=O)N1CC(N(C)C(=O)c2csc(CNc3cc(C(C)(C)C)c(Cl)cc3O)n2)C1 [Example 32, N-(1-Acryloylazetidin-3-yl)-2-(((5-(tert-butyl)-4-chloro-2-hydroxyphenyl)amino)methyl)-N-methylthiazole-4-carboxamide] |
| B (60% or more and less than 80%) | 84 nM | C=CC(=O)N1CC(NC(=O)c2cnc(CNc3cc(C(C)(C)C)c(CC)cc3O)n2C)C1 [Example 70, N-(1-Acryloylazetidin-3-yl)-2-(((5-(tert-butyl)-4-ethyl-2-hydroxyphenyl)amino)methyl)-1-methyl-1H-imidazole-5-carboxamide] |
| A (80% or more) | 37 nM | C=CC(=O)N1CC(NC(=O)c2cnc(CNc3cc(C4(C)CC4(F)F)c(Cl)cc3O)n2C)C1 (stereo not drawn) [Example 63, N-(1-Acryloylazetidin-3-yl)-2-(((4-chloro-5-(2,2-difluoro-1-methylcyclopropyl)-2-hydroxyphenyl)amino)methyl)-1-methyl-1H-imidazole-5-carboxamide] |
| A (80% or more) | 61 nM | CN(C)C/C=C/C(=O)N1CC(NC(=O)c2cnc(CNc3cc(C(C)(C)C)c(Cl)cc3O)n2C)C1 [Example 89, (E)-2-(((5-(tert-Butyl)-4-chloro-2-hydroxyphenyl)amino)methyl)-N-(1-(4-(dimethylamino)but-2-enoyl)azetidin-3-yl)-1-methyl-1H-imidazole-5-carboxamide] |
| B (60% or more and less than 80%) | 104 nM | C=CC(=O)N1CC(NC(=O)c2cnc(C(C)Nc3cc(C(C)(C)C)c(Cl)cc3O)n2C)C1 (stereo not drawn) [Example 80, N-(1-Acryloylazetidin-3-yl)-2-(1-((5-(tert-butyl)-4-chloro-2-hydroxyphenyl)amino)ethyl)-1-methyl-1H-imidazole-5-carboxamide] |
| C (40% or more and less than 60%) | 467 nM | C=CC(=O)N1CC(NC(=O)c2sc(Cc3cc(C(C)(C)C)c(Cl)cc3O)nc2C)C1 [Example 95, N-(1-Acryloylazetidin-3-yl)-2-(5-(tert-butyl)-4-chloro-2-hydroxybenzyl)-4-methylthiazole-5-carboxamide] |
| A (80% or more) | 15 nM | C=CC(=O)N1CC(NC(=O)c2cnc(CNc3cc(C(C)(C)C)c(Cl)cc3O)n2CC)C1 [Example 36, N-(1-Acryloylazetidin-3-yl)-2-(((5-(tert-butyl)-4-chloro-2-hydroxyphenyl)amino)methyl)-1-ethyl-1H-imidazole-5-carboxamide] |
| D (20% or more and less than 40%) | 522 nM | C=CC(=O)N1CC(NC(=O)c2cnc(CNc3cc(C(=C)C(F)(F)F)c(Cl)cc3O)n2C)C1 [Example 57, N-(1-Acryloylazetidin-3-yl)-2-(((4-chloro-2-hydroxy-5-(3,3,3-trifluoroprop-1-en-2-yl)phenyl)amino)methyl)-1-methyl-1H-imidazole-5-carboxamide] |
| C (40% or more and less than 60%) | 122 nM | C=CC(=O)N1CC(NC(=O)c2cnc(CNc3cc(C4CC4(F)F)c(Cl)cc3O)n2C)C1 (stereo not drawn) [Example 55, N-(1-Acryloylazetidin-3-yl)-2-(((4-chloro-5-(2,2-difluorocyclopropyl)-2-hydroxyphenyl)amino)methyl)-1-methyl-1H-imidazole-5-carboxamide] |
| C (40% or more and less than 60%) | 247 nM | C=CC(=O)N1CC(N(C)C(=O)c2cnc(CNc3cc(C(C)(C)C)c(Cl)cc3O)s2)C1 [Example 31, N-(1-Acryloylazetidin-3-yl)-2-(((5-(tert-butyl)-4-chloro-2-hydroxyphenyl)amino)methyl)-N-methylthiazole-5-carboxamide] |
| D (20% or more and less than 40%) | 2070 nM | C=CC(=O)N1CC(NC(=O)c2cncc(CNc3cc(C(C)(C)C)c(Cl)cc3O)c2)C1 [Example 17, N-(1-Acryloylazetidin-3-yl)-5-(((5-(tert-butyl)-4-chloro-2-hydroxyphenyl)amino)methyl)nicotinamide] |
| D (20% or more and less than 40%) | 3900 nM | C=CC(=O)N1CC(NC(=O)c2ccc(C(C)Nc3cc(C(C)(C)C)c(Cl)cc3O)o2)C1 (stereo not drawn) [Example 79, N-(1-Acryloylazetidin-3-yl)-5-(1-((5-(tert-butyl)-4-chloro-2-hydroxyphenyl)amino)ethyl)furan-2-carboxamide] |
| B (60% or more and less than 80%) | 808 nM | C=CC(=O)N1CC(NC(=O)c2oc(CNc3cc(C(C)(C)C)c(Cl)cc3O)cc2C)C1 [Example 21, N-(1-Acryloylazetidin-3-yl)-5-(((5-(tert-butyl)-4-chloro-2-hydroxyphenyl)amino)methyl)-3-methylfuran-2-carboxamide] |
| C (40% or more and less than 60%) | 1030 nM | C=CC(=O)N1CC(NC(=O)c2ccc(CNc3cc(C(C)(C)C)c(C#N)cc3O)o2)C1 [Example 67, N-(1-Acryloylazetidin-3-yl)-5-(((5-(tert-butyl)-4-cyano-2-hydroxyphenyl)amino)methyl)furan-2-carboxamide] |
| D (20% or more and less than 40%) | 995 nM | C=CC(=O)N1CC(NC(=O)c2cnc(CNc3cc(S(F)(F)(F)(F)F)c(Cl)cc3O)n2C)C1 [Example 58, N-(1-Acryloylazetidin-3-yl)-2-(((4-chloro-2-hydroxy-5-(pentafluoro-λ6-sulfaneyl)phenyl)amino)methyl)-1-methyl-1H-imidazole-5-carboxamide] |

| Compound | binding rate for G12C K-Ras4B (1-169) (G12C K-Ras4B (1-169)) | IC50 (KRAS G12C mutant) |
| --- | --- | --- |
| C=CC(=O)N1CC(NC(=O)c2c(C)nc(CNc3nc([Si](C)(C)C)c(Cl)cc3O)n2C)C1 [Example 85, N-(1-Acryloylazetidin-3-yl)-2-(((5-chloro-3-hydroxy-6-(trimethylsilyl)pyridin-2-yl)amino)methyl)-1,4-dimethyl-1H-imidazole-5-carboxamide] | C (40% or more and less than 60%) | 39 nM |
